Calls of active or inactive are those of the source. The rule behind the calls is not given here.
Legend:
[1] = Inhibitory activity against chitin synthase from Saccharomyces cerevisiae
[2] = Inhibitory activity against chitin synthase from Saccharomyces cerevisiae at a concentration up to 500 uM; No inhibition
[3] = biological target: Chitin synthase 1 (Candida albicans) (UniProt P23316); test: Inhibitory activity against chitin synthase from Candida albicans at 128 ug/mL; No inhibition
[4] = test system: trychophyton mentagrophytes; test: Inhibitory activity against chitin synthase from Trichophyton mentagrophytes at 128 ug/mL; No inhibition
Aspergillus fumigatus = test: Inhibitory activity against chitin synthase from Aspergillus fumigatus at 128 ug/mL; No inhibition
Cryptococcus neoformans = test: Inhibitory activity against chitin synthase from Cryptococcus neoformans at 128 ug/mL; No inhibition
Microsporum canis = test: Inhibitory activity against chitin synthase from Microsporum canis at 128 ug/mL; No inhibition

Chain of Chitin synthase 1 (Candida albicans) (P23316 whole entry, looked up): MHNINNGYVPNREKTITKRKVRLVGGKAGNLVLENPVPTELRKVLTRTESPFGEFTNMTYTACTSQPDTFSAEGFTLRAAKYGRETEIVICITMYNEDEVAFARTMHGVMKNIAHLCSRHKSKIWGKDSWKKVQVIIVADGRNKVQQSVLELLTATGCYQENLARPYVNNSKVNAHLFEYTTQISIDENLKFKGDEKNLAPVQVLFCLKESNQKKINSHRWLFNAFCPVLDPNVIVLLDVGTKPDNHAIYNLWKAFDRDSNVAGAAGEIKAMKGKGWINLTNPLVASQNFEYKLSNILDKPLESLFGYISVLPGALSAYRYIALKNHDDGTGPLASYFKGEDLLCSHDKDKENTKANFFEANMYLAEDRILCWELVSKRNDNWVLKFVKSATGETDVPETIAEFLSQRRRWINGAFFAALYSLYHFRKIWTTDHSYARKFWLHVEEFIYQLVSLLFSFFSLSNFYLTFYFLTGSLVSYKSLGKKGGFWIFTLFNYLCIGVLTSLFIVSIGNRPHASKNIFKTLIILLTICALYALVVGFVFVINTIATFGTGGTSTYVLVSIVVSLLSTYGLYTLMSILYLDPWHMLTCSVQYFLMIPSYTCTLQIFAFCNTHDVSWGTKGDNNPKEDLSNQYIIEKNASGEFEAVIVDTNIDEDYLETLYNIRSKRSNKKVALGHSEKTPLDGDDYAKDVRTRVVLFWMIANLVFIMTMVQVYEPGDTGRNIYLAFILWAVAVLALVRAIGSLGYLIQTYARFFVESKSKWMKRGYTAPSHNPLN

C[C@@H]([C@H](N)C(=O)N[C@H](C(=O)O)[C@H]1O[C@@H](n2ccc(=O)[nH]c2=O)[C@H](O)[C@@H]1O)[C@H](O)c1ccc(O)cn1 [NIKKOMYCIN]
Ki [1]: 600 nM

CCOP(=O)(OCC)C(F)(F)C1C(O)C(O)C(CO)N1CCNC1C(CO)OC(OC)C(NC(C)=O)C1O (configuration not stated)
Ki [2]: Not Active | Activity [3]: inactive | Activity [4]: inactive | Activity (Aspergillus fumigatus): inactive | Activity (Cryptococcus neoformans): inactive | Activity (Microsporum canis): inactive
